Measurements: ChEMBL document CHEMBL1201862, “PubChem BioAssay data set” (2004)
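Each compound was tested at five concentrations against cells in 96-well plates for 48 hours. GI50: concentration for 50% inhibition of growth.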 Active and inactive are the calls of the source. Rule as the data show it: active = GI50 up to about 1.1 µM and inactive = higher.

Experiments:
Assay in all cases: growth of human tumour cells (NCI), 48 h
786-0 = tested on: 786-0
A498 = tested on: A498
A549 = tested on: A549
ACHN = tested on: ACHN
BT-549 = tested on: BT-549
CAKI-1 = tested on: CAKI-1
CCRF-CEM = tested on: CCRF-CEM
COLO 205 = tested on: COLO 205
DU-145 = tested on: DU-145
HCT-116 = tested on: HCT-116
HCT-15 = tested on: HCT-15
HL-60 = tested on: HL-60
HOP-62 = tested on: HOP-62
HOP-92 = tested on: HOP-92
HT-29 = tested on: HT-29
Hs-578T = tested on: Hs-578T
IGROV-1 = tested on: IGROV-1
K562 = tested on: K562
KM12 = tested on: KM12
LOX IMVI = tested on: LOX IMVI
M14 = tested on: M14
MCF7 = tested on: MCF7
MDA-MB-231 = tested on: MDA-MB-231
MDA-MB-435 = tested on: MDA-MB-435
MDA-N = tested on: MDA-N
MOLT-4 = tested on: MOLT-4
Malme-3M = tested on: Malme-3M
NCI-H226 = tested on: NCI-H226
NCI-H23 = tested on: NCI-H23
NCI-H460 = tested on: NCI-H460
NCI-H522 = tested on: NCI-H522
NCI/ADR-RES = tested on: NCI/ADR-RES
OVCAR-3 = tested on: OVCAR-3
OVCAR-4 = tested on: OVCAR-4
OVCAR-5 = tested on: OVCAR-5
OVCAR-8 = tested on: OVCAR-8
PC-3 = tested on: PC-3
RXF 393 = tested on: RXF 393
SF-268 = tested on: SF-268
SF-295 = tested on: SF-295
SF-539 = tested on: SF-539
SK-MEL-28 = tested on: SK-MEL-28
SK-MEL-2 = tested on: SK-MEL-2
SK-MEL-5 = tested on: SK-MEL-5
SK-OV-3 = tested on: SK-OV-3
SN12C = tested on: SN12C
SNB-19 = tested on: SNB-19
SNB-75 = tested on: SNB-75
SR = tested on: SR
SW-620 = tested on: SW-620
T47D = tested on: T47D
TK-10 = tested on: TK-10
U-251 = tested on: U-251
UACC-257 = tested on: UACC-257
UACC-62 = tested on: UACC-62
UO-31 = tested on: UO-31

Q: With `COc1cc(S(=O)(=O)Nc2nc(-c3ccc(N4C(=O)/C(=C/C=C/c5ccccc5)N=C4c4ccccc4)cc3)cs2)ccc1Cl` as the molecule, how does the GI50 (786-0) read?
A: The GI50 was > 100 µM (inactive).

Q: What about the GI50 (A498) of the same molecule?
A: Its GI50 is > 100 µM (inactive).

Q: And the GI50 (A549)?
A: Its GI50 is > 100 µM (inactive).

Q: And the GI50 (ACHN)?
A: The GI50 was > 100 µM (inactive).

Q: What about the GI50 (BT-549) of the same molecule?
A: Its GI50 is 45 µM (inactive).

Q: What about the GI50 (CAKI-1) of the same molecule?
A: The GI50 was > 100 µM (inactive).

Q: What about the GI50 (CCRF-CEM) of the same molecule?
A: Its GI50 is 58.7 µM (inactive).

Q: And the GI50 (COLO 205)?
A: The GI50 was > 100 µM (inactive).

Q: And the GI50 (DU-145)?
A: The GI50 was > 100 µM (inactive).

Q: And the GI50 (HCT-116)?
A: The GI50 was 78.9 µM (inactive).

Q: And the GI50 (HCT-15)?
A: Its GI50 is over 100 µM.

Q: And the GI50 (HL-60)?
A: The GI50 was 60.7 µM (inactive).

Q: What about the GI50 (HOP-62) of the same molecule?
A: Its GI50 is > 100 µM (inactive).

Q: What about the GI50 (HOP-92) of the same molecule?
A: Its GI50 is 28.3 µM (inactive).

Q: What about the GI50 (HT-29) of the same molecule?
A: Its GI50 is > 100 µM (inactive).

Q: And the GI50 (Hs-578T)?
A: The GI50 was 36.2 µM (inactive).

Q: And the GI50 (IGROV-1)?
A: Its GI50 is 37 µM (inactive).

Q: What about the GI50 (K562) of the same molecule?
A: Its GI50 is 72.3 µM (inactive).

Q: What about the GI50 (KM12) of the same molecule?
A: The GI50 was > 100 µM (inactive).

Q: What about the GI50 (LOX IMVI) of the same molecule?
A: Its GI50 is 53.5 µM (inactive).

Q: And the GI50 (M14)?
A: The GI50 was > 100 µM (inactive).

Q: And the GI50 (MCF7)?
A: The GI50 was 43 µM (inactive).

Q: What about the GI50 (MDA-MB-231) of the same molecule?
A: The GI50 was 34.3 µM (inactive).

Q: What about the GI50 (MDA-MB-435) of the same molecule?
A: The GI50 was > 100 µM (inactive).

Q: And the GI50 (MDA-N)?
A: The GI50 was > 100 µM (inactive).

Q: And the GI50 (MOLT-4)?
A: The GI50 was 69 µM (inactive).

Q: What about the GI50 (Malme-3M) of the same molecule?
A: The GI50 was 29.2 µM (inactive).

Q: And the GI50 (NCI-H226)?
A: Its GI50 is > 100 µM (inactive).

Q: And the GI50 (NCI-H23)?
A: The GI50 was > 100 µM (inactive).

Q: And the GI50 (NCI-H460)?
A: Its GI50 is > 100 µM (inactive).

Q: What about the GI50 (NCI-H522) of the same molecule?
A: Its GI50 is 48.2 µM (inactive).

Q: What about the GI50 (NCI/ADR-RES) of the same molecule?
A: The GI50 was > 100 µM (inactive).

Q: And the GI50 (OVCAR-3)?
A: The GI50 was > 100 µM (inactive).

Q: What about the GI50 (OVCAR-4) of the same molecule?
A: The GI50 was > 100 µM (inactive).

Q: And the GI50 (OVCAR-5)?
A: Its GI50 is > 100 µM (inactive).

Q: What about the GI50 (OVCAR-8) of the same molecule?
A: Its GI50 is > 100 µM (inactive).

Q: And the GI50 (PC-3)?
A: Its GI50 is > 100 µM (inactive).

Q: And the GI50 (RXF 393)?
A: Its GI50 is 37.6 µM (inactive).

Q: What about the GI50 (SF-268) of the same molecule?
A: Its GI50 is 28.9 µM (inactive).

Q: And the GI50 (SF-295)?
A: Its GI50 is > 100 µM (inactive).

Q: What about the GI50 (SF-539) of the same molecule?
A: The GI50 was > 100 µM (inactive).

Q: What about the GI50 (SK-MEL-28) of the same molecule?
A: Its GI50 is 81.3 µM (inactive).

Q: And the GI50 (SK-MEL-2)?
A: Its GI50 is 78.3 µM (inactive).

Q: What about the GI50 (SK-MEL-5) of the same molecule?
A: The GI50 was 53 µM (inactive).

Q: And the GI50 (SK-OV-3)?
A: Its GI50 is > 100 µM (inactive).

Q: And the GI50 (SN12C)?
A: The GI50 was > 100 µM (inactive).

Q: What about the GI50 (SNB-19) of the same molecule?
A: Its GI50 is 99.3 µM (inactive).

Q: What about the GI50 (SNB-75) of the same molecule?
A: The GI50 was 93.1 µM (inactive).

Q: And the GI50 (SR)?
A: The GI50 was 58.3 µM (inactive).

Q: And the GI50 (SW-620)?
A: The GI50 was > 100 µM (inactive).

Q: What about the GI50 (T47D) of the same molecule?
A: Its GI50 is 48.1 µM (inactive).

Q: And the GI50 (TK-10)?
A: The GI50 was > 100 µM (inactive).

Q: What about the GI50 (U-251) of the same molecule?
A: The GI50 was 53.1 µM (inactive).

Q: What about the GI50 (UACC-257) of the same molecule?
A: Its GI50 is > 100 µM (inactive).

Q: And the GI50 (UACC-62)?
A: The GI50 was 35 µM (inactive).

Q: What about the GI50 (UO-31) of the same molecule?
A: Its GI50 is > 100 µM (inactive).
